Test results: patent US20250277784A1, “EXPRESSION SYSTEMS FOR THE ALPHA6BETA4 NICOTINIC ACETYLCHOLINE RECEPTOR AND METHODS OF USE THEREOF” (Janssen Pharmaceutica NV, priority 2021, published 2025)
Like-named read-outs stand apart in the source and are kept apart here.

Tests used:
Human α6β4 nAChR [1] = target: T1, Human α6β4 nAChR (Homo sapiens, UniProt P30926+Q15825); assay: FLIPR assay, agonist-evoked calcium flux in recombinant cells co-transfected with BARP, SULT2B1 and CHAT; type: cell-based
T1 construct: expressed in transfected cells
T1 sequence (Q15825 26-494): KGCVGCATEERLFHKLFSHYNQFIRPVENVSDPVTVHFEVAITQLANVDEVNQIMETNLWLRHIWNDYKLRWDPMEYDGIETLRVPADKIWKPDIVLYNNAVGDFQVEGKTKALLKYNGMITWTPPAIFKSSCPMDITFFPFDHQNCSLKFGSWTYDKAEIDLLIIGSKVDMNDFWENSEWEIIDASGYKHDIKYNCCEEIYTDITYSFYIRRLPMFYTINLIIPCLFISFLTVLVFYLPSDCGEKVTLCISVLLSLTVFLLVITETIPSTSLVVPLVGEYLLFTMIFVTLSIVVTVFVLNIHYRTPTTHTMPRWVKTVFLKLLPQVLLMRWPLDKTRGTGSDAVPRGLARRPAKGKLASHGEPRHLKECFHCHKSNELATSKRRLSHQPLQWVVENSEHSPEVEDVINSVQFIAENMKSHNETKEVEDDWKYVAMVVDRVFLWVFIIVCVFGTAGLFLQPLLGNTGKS
T1 sequence (P30926 22-498): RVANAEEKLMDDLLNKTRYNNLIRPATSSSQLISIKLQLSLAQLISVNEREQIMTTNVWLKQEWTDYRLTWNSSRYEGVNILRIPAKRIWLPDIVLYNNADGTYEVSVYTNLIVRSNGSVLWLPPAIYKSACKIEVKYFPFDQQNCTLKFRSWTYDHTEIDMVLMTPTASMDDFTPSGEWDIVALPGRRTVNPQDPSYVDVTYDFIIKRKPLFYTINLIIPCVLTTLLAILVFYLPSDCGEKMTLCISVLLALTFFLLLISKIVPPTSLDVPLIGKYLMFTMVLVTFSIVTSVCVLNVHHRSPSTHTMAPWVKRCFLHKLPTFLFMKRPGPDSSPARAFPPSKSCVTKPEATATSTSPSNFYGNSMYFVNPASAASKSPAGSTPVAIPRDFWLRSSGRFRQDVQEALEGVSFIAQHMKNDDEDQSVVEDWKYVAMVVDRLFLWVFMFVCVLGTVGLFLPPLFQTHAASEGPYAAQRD
Experimental: In one embodiment, FLIPR assay is used to identify agonists of α6β4 nAChR mediated calcium flux. In this assay, the recombinant cells are incubated with a calcium sensitive dye (such as Ca5), exposed to a test compound, and calcium flux is imaged by FLIPR^TETRA.
• Prepare a cell suspension of 1×10^6 cells per mL by centrifuging cells and resuspending in fresh, prewarmed media; • With 1900 mL of cells shaking, prepare the following transfection mix in 50 ml of OptiPro SFM Medium; • Add 2.5 mL FreeStyle MAX reagent to 47.5 mL of OptiPro SFM to an empty 50 ml tube; • In a second 50 ml tube, add 2.5 mg total DNA (α6, β4, BARP, CHAT, and SULT2B1 at a ratio of 1:1:2:1:1) in OptiPro SFM to a final volume of 50 ml and vortex gently; • Transfer the diluted DNA to the FreeStyle MAX reagent and gently mix the solution immediately and incubate for 10 minutes at room temperature; • Transfer the 100 ml FreeStyle MAX/DNA transfection mix to the cells and homogenize the culture; • Incubate 1 hour at 37° C. with 8% CO2; • Pour cells into sterile 500 mL tubes; • Spin at 1000 rpm for 7 minutes; • Remove supernatant; and • Resuspend Cells in Plating Media.
• Ethanol vials to decontaminate; • Pour cells into 50 ml conical tube; • Slowly add 10 ml warmed plating media drop wise; • Pipet up and down gently a few times to dislodge pellet if it exists; • Spin at 1000 RPM for 7 min, aspirate supernatant, and resuspend in 25 ml plating; • Seed 35,000 cells/well in 35 μL (1.0×10^6 cells/mL); and • Incubate plates for 24 hours at 37° C. Then transfer the plate to 30° C. with 5% CO2 in a humidified atmosphere for 24-48 hours.
• Wash plate with plate washer (4 washes×100 μL/wash) using compound dilution buffer, leaving 25 µL in each well; • Add 25 μL of 2× Ca6 dye to each well; • Incubate at room temperature for 1 hour; • Wash plate with plate washer (4 washes×100 μL/wash) using compound dilution buffer, leaving 50 µL in each well; • Transfer plates to FLIPR for compound addition. Concentration Response Curves for Agonist-Evoked Activity of α6β4 nAChR
Human α6 and β4 subunits of α6β4 nAChR were co-transfected with BARP, SULT2B1, and CHAT in HEK293T cells and incubated at 30° C. for 24-48 hours. The transfected cells were incubated for one hour at room temperature with Ca5 dye followed by stimulating with agonists for 3.5 minutes. Agonist-evoked calcium flux was measured using a FLIPR^TETRA imager and final FLIPR signals were averaged and plotted (FIG. 1).

[2] = tested on: patients with diabetic peripheral neuropathic pain; conditions: phase 2 clinical trial; cited from earlier work
Human α6β4 nAChR [3] = target: T1, Human α6β4 nAChR; assay: FLIPR assay, antagonist on nicotine-evoked calcium flux (two-addition protocol); type: cell-based; conditions: HEK293T cells, 1st addition test compound 3 min, 2nd addition nicotine (EC80, 15 μM) 3.5 min, FIG. 2
Experimental: In one embodiment, FLIPR assay is used to identify antagonists of nicotine-evoked α6β4 nAChR mediated calcium flux. In this assay, the recombinant cells are incubated with a calcium sensitive dye (such as Ca5). Using a double addition protocol, the recombinant cells are exposed to test compounds during the first duration, and to nicotine (e.g., at EC80 (15 μm)) during the second duration. Thereafter, the calcium flux is imaged by FLIPR^TETRA. […]
Human α6 and β4 subunits of α6β4 nAChR were co-transfected with BARP, SULT2B1, and CHAT in HEK293T cells and incubated at 30° C. for 24-48 hour. […] Nicotine-evoked calcium flux was then measured using a FLIPR^TETRA imager and the final FLIPR signals were averaged and plotted (FIG. 2).

α6 knockout mice = conditions: following both inflammatory and neuropathic injuries; cited from earlier work
[4] = HEK293T cells, incubated at 30° C. for 24-48 hours, Ca5 dye, agonist stimulation 3.5 minutes, FIG. 1

## c1cncc(OC[C@@H]2CCN2)c1 [A-85380]
Human α6β4 nAChR [1]; [4]
  Agonist-evoked calcium flux (FLIPR signal): enhances calcium flux in a dose-dependent manner

## Clc1ccc(OC[C@H]2CCN2)cn1 [ABT-594]
[2]
  Efficacy for diabetic neuropathy: robust efficacy
  Side effects: unacceptable side effects
Human α6β4 nAChR [1]; [4]
  Agonist-evoked calcium flux (FLIPR signal): enhances calcium flux in a dose-dependent manner

## Clc1cc(N2C[C@@H]3CN[C@@H]3C2)cnc1Cl [ABT-894]
Human α6β4 nAChR [1]; [4]
  Agonist-evoked calcium flux (FLIPR signal): enhances calcium flux in a dose-dependent manner

## CCN1C[C@]2(COC(=O)c3ccccc3N3C(=O)C[C@H](C)C3=O)CC[C@H](OC)[C@@]34[C@@H]5C[C@H]6[C@H](OC)[C@@H]5[C@](O)(C[C@@H]6OC)[C@@](O)([C@@H](OC)[C@H]23)[C@@H]14 [MLA, methyllycaconitine]
Human α6β4 nAChR [3]
  Nicotine-evoked calcium flux (FLIPR signal): decreases the nicotine-evoked calcium flux in a dose-dependent manner

## O=c1cccc2n1C[C@@H]1CNC[C@H]2C1 [cytisine]
Human α6β4 nAChR [1]
  Agonist-evoked calcium flux (FLIPR signal): enhances calcium flux in a dose-dependent manner

## Clc1ccc(C2CC3CCC2N3)cn1 (stereo not drawn) [epibatidine]
Human α6β4 nAChR [1]; [4]
  Agonist-evoked calcium flux (FLIPR signal): enhances calcium flux in a dose-dependent manner

## CN1CCCC1c1cccnc1 (stereo not drawn) [nicotine]
α6 knockout mice
  Analgesic effects: absent
Human α6β4 nAChR [1]
  Agonist-evoked calcium flux (FLIPR signal): enhances calcium flux in a dose-dependent manner
  Nicotine EC80: 15 µM

## c1cnc2cc3c(cc2n1)[C@@H]1CNC[C@H]3C1 [varenicline]
Human α6β4 nAChR [1]; [4]
  Agonist-evoked calcium flux (FLIPR signal): enhances calcium flux in a dose-dependent manner
